According to patent US20090062369A1, “USE OF SECRETORY PHOSPHOLIPASE A2 (SPLA2) INHIBITORS TO DECREASE SPLA2 LEVELS” (priority 2007, published 2009):

Test system: serum sPLA2
Test: Effect of twice-a-day oral A-002 on serum sPLA2 levels in subjects with stable coronary artery disease (Example 6)
Type: in vivo, human
Protocol: The protocol for preparing standard curve, test, and quality control samples for use in the assay disclosed herein is set forth in Example 5. Samples are prepared according to this protocol, then loaded in duplicate onto a plate (Cayman catalog no. 485002 or equivalent) that has been pre-coated with a monoclonal sPLA2 antibody (“capture antibody”) that specifically binds sPLA2. In certain embodiments, the capture antibody may interact with a specific form of sPLA2, such as for example sPLA2 type IIA.
sPLA2 acetylcholinesterase:Fab′ conjugate (AChE:Fab′) (“conjugate”) (Cayman catalog no. 485000 or equivalent) is reconstituted in EIA buffer (Cayman catalog no. 400060 or equivalent). Cayman EIA buffer is 1M phosphate, pH 7.0, 1% BSA, 4M NaCl, 10 mM EDTA, and 0.1% sodium azide. Reconstituted conjugate is added to each well of the plate. The conjugate binds a different sPLA2 epitope than the capture antibody, allowing the capture antibody and the conjugate to form a “sandwich” that is immobilized on the plate. Excess reagents are washed away, and the plate is covered and incubated overnight at 2-8° C.
Prior to development, the wells are washed five to six times with wash buffer (Cayman catalog no. 400062 or equivalent). To develop the plate, Ellman's Reagent (Cayman catalog no. 400050 or equivalent) is reconstituted in water and added to each well according to manufacturer instructions. The reconstituted Ellman's Reagent must be used the same day it is prepared because it is unstable. Ellman's Reagent contains an AChE substrate. Specifically, Ellman's Reagent contains acetylthiocholine and 5,5′-dithio-bis-(2-nitrobenzoic acid). Hydrolysis of acetylthiocholine by acetylcholinesterase produces thiocholine, which reacts with 5,5′-dithio-bis-(2-nitrobenzoic acid) to produce 5-thio-2-nitrobenzoic acid. 5-thio-2-nitrobenzoic acid has a strong absorbance at 412 nm. The intensity of absorbance at this wavelength is directly proportional to the concentration of bound conjugate, which is in turn is directly proportional to the concentration of sPLA2 present (Absorbance a [AChE:Fab′ conjugate] α [sPLA2]). During the development step, the plate is shaken, preferably in the dark. In certain embodiments the development time for the assay is 0.5 to 3 hours, preferably 1 to 1.5 hours. At the end of the development period, the high sPLA2 standards should have greater yellow color development than the zero standards. Absorbance of each well is measured at 400-420 nm using a micro-well plate reader. In certain embodiments, absorbance is measured at about 405 nm.
Absorbance readings for duplicate wells are averaged, and the relative standard deviation and % CV are calculated. Standard curve data are used to generate a four parameter curve, and quality control and test samples are measured against the appropriate standard curve (i.e., the standard curve with the same serum content). In order for a test to be considered valid, variation between duplicate wells should be no more than about 25%, and negative controls (blanks) for each standard curve should have a mean absorbance of less than about 0.3.
The method disclosed herein for measuring sPLA2 levels in serum was utilized to determine the effect of administering certain sPLA2 inhibitors on sPLA2 levels in 84 human subjects. The subjects included 24 subjects with diabetes, 32 subjects with metabolic syndrome, and 75 subjects receiving statin treatment. Subjects were administered the sPLA2 inhibitor A-002, a prodrug form of A-001, twice a day at varying dosages from 50 to 500 mg. The structures of A-002and A-001 are set forth below. At two weeks and four weeks after the first administration, sPLA2 levels were measured and compared to pre-administration baseline levels.
84 subjects with stable coronary artery disease were randomized to receive placebo or A-002 via oral administration twice a day over a four week administration period. […]

[1] = 50 mg, diabetes subgroup of ITT population
[2] = 50 mg, non-diabetes subgroup of ITT population
[3] = 50 mg, statin subgroup of ITT population
[4] = 100 mg, diabetes subgroup of ITT population
[5] = 100 mg, non-diabetes subgroup of ITT population
[6] = 100 mg, statin subgroup of ITT population

## CCc1c(C(=O)C(N)=O)c2c(OCC(=O)OC)cccc2n1Cc1ccccc1 [A-002, [[3-(2-Amino-1,2-dioxoethyl)-2-ethyl-1-(phenylmethyl)-1H-indol-4-yl]oxy]acetic acid methyl ester]
50 mg, ITT population
  sPLA2 Change from baseline at week 2, Mean: -2.74 ng/mL
  sPLA2 Change from baseline at week 2, Median: -2.60 ng/mL
  sPLA2 Change from baseline at week 2, Range: -5.30 to -0.60 ng/mL
  sPLA2 Change from baseline at week 4, Mean: -2.50 ng/mL
  sPLA2 Change from baseline at week 4, Median: -2.15 ng/mL
  sPLA2 Change from baseline at week 4, Range: -6.40 to -0.60 ng/mL
  sPLA2 level, Baseline, Mean: 3.24 ng/mL
  sPLA2 level, Baseline, Median: 2.65 ng/mL
  sPLA2 level, Baseline, Range: 0.80 to 8.80 ng/mL
  sPLA2 level, Week 2, Mean: 0.89 ng/mL
  sPLA2 level, Week 2, Median: 0.45 ng/mL
  sPLA2 level, Week 2, Range: 0.20 to 4.00 ng/mL
  sPLA2 level, Week 4, Mean: 0.85 ng/mL
  sPLA2 level, Week 4, Median: 0.70 ng/mL
  sPLA2 level, Week 4, Range: 0.10 to 2.40 ng/mL
[1]
  sPLA2 Change from baseline at week 2, Mean: -2.05 ng/mL
  sPLA2 Change from baseline at week 2, Median: -2.45 ng/mL
  sPLA2 Change from baseline at week 2, Range: -2.70 to -0.60 ng/mL
  sPLA2 Change from baseline at week 4, Mean: -1.76 ng/mL
  sPLA2 Change from baseline at week 4, Median: -1.50 ng/mL
  sPLA2 Change from baseline at week 4, Range: -3.20 to -0.60 ng/mL
  sPLA2 level, Baseline, Mean: 2.45 ng/mL
  sPLA2 level, Baseline, Median: 2.65 ng/mL
  sPLA2 level, Baseline, Range: 0.80 to 3.80 ng/mL
  sPLA2 level, Week 2, Mean: 0.55 ng/mL
  sPLA2 level, Week 2, Median: 0.45 ng/mL
  sPLA2 level, Week 2, Range: 0.20 to 1.10 ng/mL
  sPLA2 level, Week 4, Mean: 0.66 ng/mL
  sPLA2 level, Week 4, Median: 0.60 ng/mL
  sPLA2 level, Week 4, Range: 0.20 to 1.20 ng/mL
[2]
  sPLA2 Change from baseline at week 2, Mean: -3.09 ng/mL
  sPLA2 Change from baseline at week 2, Median: -3.05 ng/mL
  sPLA2 Change from baseline at week 2, Range: -5.30 to -0.70 ng/mL
  sPLA2 Change from baseline at week 4, Mean: -3.03 ng/mL
  sPLA2 Change from baseline at week 4, Median: -2.80 ng/mL
  sPLA2 Change from baseline at week 4, Range: -6.40 to -0.80 ng/mL
  sPLA2 level, Baseline, Mean: 3.72 ng/mL
  sPLA2 level, Baseline, Median: 3.20 ng/mL
  sPLA2 level, Baseline, Range: 1.30 to 8.80 ng/mL
  sPLA2 level, Week 2, Mean: 1.06 ng/mL
  sPLA2 level, Week 2, Median: 0.06 ng/mL
  sPLA2 level, Week 2, Range: 0.20 to 4.00 ng/mL
  sPLA2 level, Week 4, Mean: 0.96 ng/mL
  sPLA2 level, Week 4, Median: 0.75 ng/mL
  sPLA2 level, Week 4, Range: 0.10 to 2.40 ng/mL
[3]
  sPLA2 Change from baseline at week 2, Mean: -2.74 ng/mL
  sPLA2 Change from baseline at week 2, Median: -2.60 ng/mL
  sPLA2 Change from baseline at week 2, Range: -5.30 to -0.60 ng/mL
  sPLA2 Change from baseline at week 4, Mean: -2.50 ng/mL
  sPLA2 Change from baseline at week 4, Median: -2.15 ng/mL
  sPLA2 Change from baseline at week 4, Range: -6.40 to -0.60 ng/mL
  sPLA2 level, Baseline, Mean: 3.34 ng/mL
  sPLA2 level, Baseline, Median: 2.70 ng/mL
  sPLA2 level, Baseline, Range: 0.80 to 8.80 ng/mL
  sPLA2 level, Week 2, Mean: 0.89 ng/mL
  sPLA2 level, Week 2, Median: 0.45 ng/mL
  sPLA2 level, Week 2, Range: 0.20 to 4.00 ng/mL
  sPLA2 level, Week 4, Mean: 0.85 ng/mL
  sPLA2 level, Week 4, Median: 0.70 ng/mL
  sPLA2 level, Week 4, Range: 0.10 to 2.40 ng/mL
100 mg, ITT population
  sPLA2 Change from baseline at week 2, Mean: -1.81 ng/mL
  sPLA2 Change from baseline at week 2, Median: -1.85 ng/mL
  sPLA2 Change from baseline at week 2, Range: −3.70 to +2.85 ng/ml
  sPLA2 Change from baseline at week 4, Mean: -2.55 ng/mL
  sPLA2 Change from baseline at week 4, Median: -2.50 ng/mL
  sPLA2 Change from baseline at week 4, Range: -5.70 to 0.00 ng/mL
  sPLA2 level, Baseline, Mean: 2.86 ng/mL
  sPLA2 level, Baseline, Median: 2.95 ng/mL
  sPLA2 level, Baseline, Range: 0.05 to 6.00 ng/mL
  sPLA2 level, Week 2, Mean: 0.68 ng/mL
  sPLA2 level, Week 2, Median: 0.45 ng/mL
  sPLA2 level, Week 2, Range: 0.05 to 2.90 ng/mL
  sPLA2 level, Week 4, Mean: 0.49 ng/mL
  sPLA2 level, Week 4, Median: 0.50 ng/mL
  sPLA2 level, Week 4, Range: 0.05 to 1.10 ng/mL
[4]
  sPLA2 Change from baseline at week 2, Mean: -1.11 ng/mL
  sPLA2 Change from baseline at week 2, Median: -1.80 ng/mL
  sPLA2 Change from baseline at week 2, Range: −3.00 to +2.85 ng/ml
  sPLA2 Change from baseline at week 4, Mean: -2.30 ng/mL
  sPLA2 Change from baseline at week 4, Median: -1.80 ng/mL
  sPLA2 Change from baseline at week 4, Range: -5.70 to 0.00 ng/mL
  sPLA2 level, Baseline, Mean: 2.78 ng/mL
  sPLA2 level, Baseline, Median: 2.50 ng/mL
  sPLA2 level, Baseline, Range: 0.05 to 6.00 ng/mL
  sPLA2 level, Week 2, Mean: 1.02 ng/mL
  sPLA2 level, Week 2, Median: 0.50 ng/mL
  sPLA2 level, Week 2, Range: 0.40 to 2.90 ng/mL
  sPLA2 level, Week 4, Mean: 0.48 ng/mL
  sPLA2 level, Week 4, Median: 0.40 ng/mL
  sPLA2 level, Week 4, Range: 0.05 to 1.10 ng/mL
[5]
  sPLA2 Change from baseline at week 2, Mean: -2.21 ng/mL
  sPLA2 Change from baseline at week 2, Median: -2.40 ng/mL
  sPLA2 Change from baseline at week 2, Range: -3.70 to -0.40 ng/mL
  sPLA2 Change from baseline at week 4, Mean: -2.76 ng/mL
  sPLA2 Change from baseline at week 4, Median: -2.60 ng/mL
  sPLA2 Change from baseline at week 4, Range: -4.40 to -0.90 ng/mL
  sPLA2 level, Baseline, Mean: 2.91 ng/mL
  sPLA2 level, Baseline, Median: 3.20 ng/mL
  sPLA2 level, Baseline, Range: 1.00 to 4.90 ng/mL
  sPLA2 level, Week 2, Mean: 0.48 ng/mL
  sPLA2 level, Week 2, Median: 0.30 ng/mL
  sPLA2 level, Week 2, Range: 0.05 to 1.20 ng/mL
  sPLA2 level, Week 4, Mean: 0.51 ng/mL
  sPLA2 level, Week 4, Median: 0.60 ng/mL
  sPLA2 level, Week 4, Range: 0.05 to 1.00 ng/mL
[6]
  sPLA2 Change from baseline at week 2, Mean: -1.81 ng/mL
  sPLA2 Change from baseline at week 2, Median: -1.80 ng/mL
  sPLA2 Change from baseline at week 2, Range: −3.70 to +2.85 ng/ml
  sPLA2 Change from baseline at week 4, Mean: -2.46 ng/mL
  sPLA2 Change from baseline at week 4, Median: -2.50 ng/mL
